Laboratory results as given in patent US20100099652A1, “NOVEL COMPOSITION BASED ON CHOLEST-4-EN-3-ONE OXIME” (TROPHOS, priority 2007, published 2010).
≈ marks a conversion by molar mass, not a printed value.

Columns and labels:
[1] = Maximum solubility of cholest-4-en-3-one oxime in water and in different oils; assay type: physicochemical
[2] = Stability of cholest-4-en-3-one oxime in different oils (impurities by HPLC UV at 255 nm); assay type: physicochemical; conditions: 15 mg/ml, 60° C., 15 days
Experimental: The stability of cholest-4-en-3-one oxime was tested in 12 different oils. The compound is added to the oil at a concentration of 15 mg/ml in the form of micronized powder, and the mixture is placed in an oven at 60° C. for 15 days. […] The major impurity obtained is cholestenone. Other impurities can also appear, certain of which are known (and known to be stable), whereas other impurities appearing are unknown, and the potential toxicity or stability of which is therefore not known.
The product is considered to be very stable (++, very stable) in a given oil if after the incubation for 15 days in the oven at 60° C., the percentage of the measured total area under the curve of the chromatogram obtained corresponding to peaks of degradation products of cholest-4-en-3-one oxime represents less than 1%, and these are known, stable products. The product is considered stable (+, stable) in an oil if after the 15 days spent in the oven at 60° C., the percentage of the measured total area under the curve of the chromatogram obtained corresponding to peaks of degradation products of cholest-4-en-3-one oxime represents less than 1%, but corresponds to unknown degradation products. The product is considered unstable (−, instable) in an oil if after the 15 days spent in the oven at 60° C., the percentage of the measured total area under the curve of the chromatogram obtained corresponding to peaks of degradation products of cholest-4-en-3-one oxime represents more than 1%.

CC(C)CCC[C@@H](C)[C@H]1CC[C@H]2[C@@H]3CCC4=CC(=NO)CC[C@]4(C)[C@H]3CC[C@]12C [cholest-4-en-3-one oxime]
solubility ([1]; castor oil, oil or lipid): < 15 mg/mL | solubility ([1]; cotton oil, oil or lipid): 28 mg/mL (≈ 70.1 mM) | solubility ([1]; ground nut oil, oil or lipid): < 15 mg/mL | solubility ([1]; oil or lipid, Mixture of medium-chain triglycerides (ESTASAN ®, MYGLIOL ®)): 45 mg/mL (≈ 113 mM) | solubility ([1]; olive oil, oil or lipid): 40 mg/mL (≈ 100 mM) | solubility ([1]; rapeseed oil, oil or lipid): < 15 mg/mL | solubility ([1]; sesame oil, oil or lipid): 35 mg/mL (≈ 87.6 mM) | solubility ([1]; soya oil, oil or lipid): 30 mg/mL (≈ 75.1 mM) | solubility ([1]; water): 0.001 mg/mL (≈ 0.0025 mM) | stability ([2]; Almond oil): − (major instability of the product in the oil tested, with release of more than 1% degradation products, over 2 weeks at 60° C.) | stability ([2]; Caster oil): + (compound which is stable in the oil tested, with release of less than 1% unknown degradation products, over 2 weeks at 60° C.) | stability ([2]; Corn oil): − (major instability of the product in the oil tested, with release of more than 1% degradation products, over 2 weeks at 60° C.) | stability ([2]; Cotton oil): ++ (compound which is very stable in the oil tested, with release of less than 1% stable known degradation products, over 2 weeks at 60° C.) | stability ([2]; Ground nut oil): + (compound which is stable in the oil tested, with release of less than 1% unknown degradation products, over 2 weeks at 60° C.) | stability ([2]; Mixture of medium-chain triglycerides (ESTASAN ®, MYGLIOL ®)): ++ (compound which is very stable in the oil tested, with release of less than 1% stable known degradation products, over 2 weeks at 60° C.) | stability ([2]; Oleic acid): − (major instability of the product in the oil tested, with release of more than 1% degradation products, over 2 weeks at 60° C.) | stability ([2]; Olive oil): ++ (compound which is very stable in the oil tested, with release of less than 1% stable known degradation products, over 2 weeks at 60° C.) | stability ([2]; Rapeseed oil): + (compound which is stable in the oil tested, with release of less than 1% unknown degradation products, over 2 weeks at 60° C.) | stability ([2]; Sesame oil): ++ (compound which is very stable in the oil tested, with release of less than 1% stable known degradation products, over 2 weeks at 60° C.) | stability ([2]; Soya oil): ++ (compound which is very stable in the oil tested, with release of less than 1% stable known degradation products, over 2 weeks at 60° C.) | stability ([2]; Sunflower oil): − (major instability of the product in the oil tested, with release of more than 1% degradation products, over 2 weeks at 60° C.)
